Legend:
[1] = target: frog TRPV3 (fTRPV3) (Xenopus tropicalis, UniProt F6UZP3); test: Whole-cell recording of 2-APB-evoked currents in fTRPV3-expressing HEK 293T cells; type: cell-based
Description: (§1) The WT mouse TRPV3 (mTRPV3), human TRPV3 (hTRPV3), rat TRPV1, rat TRPV2, rat TRPM8, and mouse TRPA1 cDNAs were generously provided by Dr. Feng Qin (State University of New York at Buffalo, Buffalo, USA). The GFP-mTRPV3 WT and the mutants (mTRPV3-G573S and mTRPV3-G573C) in pcDNA4/TO vector were gifts from Dr. Michael X Zhu (The University of Texas Health Science Center at Houston, Houston, USA). The WT fTRPV3 was kindly provided by Dr. Makoto Tominaga (Department of Physiological Sciences, SOKENDAI, Okazaki, Japan). All mutations were made using the overlap-extension polymerase chain reaction method as previously described ([Tian et al., 2019]). The resulting mutations were then verified by DNA sequencing. […]
(§2) Conventional whole-cell and excised patch-clamp recording methods were used. […] For a subset of recordings, currents were amplified using an Axopatch 200B amplifier (Molecular Devices, Sunnyvale, CA) and recorded through a BNC-2090/MIO acquisition system (National Instruments, Austin, TX) using QStudio developed by Dr. Feng Qin at State University of New York at Buffalo. […] As determined by the conductance tests, the solution around a patch under study was fully controlled by the application of a flow rate of 100 μl/min or greater. […]

[2] = target: T1, TRPV3 (G573S) (Mus musculus, UniProt Q8K424, G573S); test: Whole-cell currents of TRPV3 (G573S) expressed in T-Rex 293 cells; type: cell-based
T1 construct: expressed in transfected cells; host or cells: T-Rex 293
T1 sequence (Q8K424 whole entry G573S): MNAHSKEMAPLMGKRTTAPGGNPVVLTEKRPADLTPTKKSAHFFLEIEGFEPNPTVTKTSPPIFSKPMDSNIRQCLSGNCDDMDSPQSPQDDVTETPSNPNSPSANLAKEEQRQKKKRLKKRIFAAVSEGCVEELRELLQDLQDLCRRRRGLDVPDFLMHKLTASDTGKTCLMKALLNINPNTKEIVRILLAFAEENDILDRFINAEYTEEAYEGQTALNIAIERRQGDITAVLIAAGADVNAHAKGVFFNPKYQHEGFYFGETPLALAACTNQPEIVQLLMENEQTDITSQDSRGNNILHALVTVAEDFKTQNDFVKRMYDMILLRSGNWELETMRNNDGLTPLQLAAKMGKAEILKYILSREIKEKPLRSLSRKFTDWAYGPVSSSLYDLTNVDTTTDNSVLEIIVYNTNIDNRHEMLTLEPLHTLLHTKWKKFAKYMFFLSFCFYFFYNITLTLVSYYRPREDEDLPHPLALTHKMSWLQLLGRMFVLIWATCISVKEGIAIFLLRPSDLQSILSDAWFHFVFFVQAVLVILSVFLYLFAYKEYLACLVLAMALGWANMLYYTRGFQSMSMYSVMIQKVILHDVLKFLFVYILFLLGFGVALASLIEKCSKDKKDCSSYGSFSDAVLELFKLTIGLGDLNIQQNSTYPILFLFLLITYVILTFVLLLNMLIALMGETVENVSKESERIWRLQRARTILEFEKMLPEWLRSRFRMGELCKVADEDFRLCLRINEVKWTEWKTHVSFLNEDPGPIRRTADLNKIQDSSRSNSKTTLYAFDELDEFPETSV
Description: as §1, §2

[3] = target: T2, TRPV3 (G573C) (Mus musculus, UniProt Q8K424, G573C); test: Whole-cell currents of TRPV3 (G573C) expressed in T-Rex 293 cells; type: cell-based
T2 construct: expressed in transfected cells; host or cells: T-Rex 293
T2 sequence (Q8K424 whole entry G573C): as the sequence (Q8K424 whole entry G573S) above, with S573C counted along it
Description: as §1, §2

[4] = system: C57B/6 mice; test: Carvacrol-induced itch-scratching behavior in mice; type: in vivo, mouse
Method: To assess itch-scratching behaviors, the hair of the rostral part of the mouse’s right neck was shaved using an electric hair clipper 24 hr before the start of experiments. Trpv3^-/- mice have been described previously ([Wang et al., 2021]). Scratching behaviors were recorded on video. The number of itch-scratching bouts was counted through video playback analysis. One scratching bout was defined as an episode in which a mouse lifted its right hind limb to the injection site and scratched continuously for any time length until this limb was returned to the floor or mouth ([Wilson et al., 2013]). All behavioral experiments were conducted in a double-blind manner. […] [Sun and Dong, 2016]).

[5] = system: mouse dorsal root ganglia (DRG) and trigeminal ganglia (TG) neurons; test: Current-clamp recording of mouse DRG and TG neurons; type: cell-based; settings: dyclonine 10 μM
[6] = target: T3, TRPV3 I674A (Mus musculus, UniProt Q8K424, I674A); test: Whole-cell recording of TRPV3 mutant I674A in HEK 293T cells; type: cell-based; settings: 2-APB (1 mM)-evoked, –60 mV, read-out: IC50 for inhibition of TRPV3 mutant
T3 construct: expressed in transfected cells; host or cells: HEK 293T
T3 sequence (Q8K424 whole entry I674A): as the sequence (Q8K424 whole entry G573S) above, with S573G, I674A counted along it
Description: as §1, §2

[7] = target: T4, TRPV3 L655A (Mus musculus, UniProt Q8K424, L655A); test: Whole-cell recording of TRPV3 mutant L655A in HEK 293T cells; type: cell-based; settings: 2-APB (1 mM)-evoked, –60 mV, read-out: IC50 for inhibition of TRPV3 mutant
T4 construct: expressed in transfected cells; host or cells: HEK 293T
T4 sequence (Q8K424 whole entry L655A): as the sequence (Q8K424 whole entry G573S) above, with S573G, L655A counted along it
Description: as §1, §2

[8] = target: T5, TRPV3 N643A (Mus musculus, UniProt Q8K424, N643A); test: Whole-cell recording of TRPV3 mutant N643A in HEK 293T cells; type: cell-based; settings: 2-APB (1 mM)-evoked, –60 mV, read-out: IC50 for inhibition of TRPV3 mutant
T5 construct: expressed in transfected cells; host or cells: HEK 293T
T5 sequence (Q8K424 whole entry N643A): as the sequence (Q8K424 whole entry G573S) above, with S573G, N643A counted along it
Description: as §1, §2

[9] = target: T6, TRPV3 L642A (Mus musculus, UniProt Q8K424, L642A); test: Whole-cell recording of TRPV3 mutant L642A in HEK 293T cells; type: cell-based; settings: 2-APB (1 mM)-evoked, –60 mV, read-out: IC50 for inhibition of TRPV3 mutant
T6 construct: expressed in transfected cells; host or cells: HEK 293T
T6 sequence (Q8K424 whole entry L642A): as the sequence (Q8K424 whole entry G573S) above, with S573G, L642A counted along it
Description: as §1, §2

[10] = 10 μM dyclonine, –60 mV, leak subtracted with 20 μM RR

Chain of frog TRPV3 (fTRPV3) (F6UZP3 entry or part of it): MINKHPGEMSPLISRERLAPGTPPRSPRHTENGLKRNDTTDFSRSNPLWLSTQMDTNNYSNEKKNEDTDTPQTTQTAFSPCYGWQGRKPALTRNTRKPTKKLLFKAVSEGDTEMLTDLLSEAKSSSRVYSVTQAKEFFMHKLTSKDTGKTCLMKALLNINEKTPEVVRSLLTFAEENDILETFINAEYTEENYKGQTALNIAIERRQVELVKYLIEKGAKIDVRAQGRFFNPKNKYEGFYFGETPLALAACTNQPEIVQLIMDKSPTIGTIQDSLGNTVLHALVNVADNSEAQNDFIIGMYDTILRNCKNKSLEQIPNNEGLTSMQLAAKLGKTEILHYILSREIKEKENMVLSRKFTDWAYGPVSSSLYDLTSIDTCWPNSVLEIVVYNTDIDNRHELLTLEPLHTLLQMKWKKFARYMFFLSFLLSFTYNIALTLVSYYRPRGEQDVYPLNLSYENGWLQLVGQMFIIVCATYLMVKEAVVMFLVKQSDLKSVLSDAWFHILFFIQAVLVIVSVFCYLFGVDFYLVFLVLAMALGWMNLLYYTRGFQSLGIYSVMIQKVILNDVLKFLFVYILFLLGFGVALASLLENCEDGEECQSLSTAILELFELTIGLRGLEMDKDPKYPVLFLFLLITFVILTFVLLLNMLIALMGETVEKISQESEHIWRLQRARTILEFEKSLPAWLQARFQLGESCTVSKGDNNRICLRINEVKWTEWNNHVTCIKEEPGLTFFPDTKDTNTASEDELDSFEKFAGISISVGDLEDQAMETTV

Hill coefficient nH [1]: 1.6 ± 0.34 | IC50 ([1]; 3 mM 2-APB-evoked, –60 mV, read-out: IC50 on inhibition of fTRPV3 currents): 12.3 µM | reduction of spontaneous activities [2, 10]: 74% ± 3% | 300 μM 2-APB-evoked responses, of control level ([2]; presence of dyclonine): 10% ± 2% | reduction of spontaneous activities [3, 10]: 71% ± 2% | 300 μM 2-APB-evoked responses, of control level ([3]; presence of dyclonine): 11% ± 1% | IC50 [6]: 15.1 ± 2.1 µM | IC50 [7]: 287 ± 10.4 µM | IC50 [8]: 37.7 ± 5.1 µM | IC50 [9]: 0.25 ± 0.02 µM
SMILES: CCCCOc1ccc(C(=O)CCN2CCCCC2)cc1 [dyclonine]
scratching bouts over 30 min ([4]; 50 μl dyclonine 1 μM intradermal 30 min before carvacrol (0.1%, 50 μl)): 130.0 ± 20.3 | scratching bouts over 30 min ([4]; 50 μl dyclonine 10 μM intradermal 30 min before carvacrol (0.1%, 50 μl)): 82.0 ± 15.0 | scratching bouts over 30 min ([4]; 50 μl dyclonine 50 μM intradermal 30 min before carvacrol (0.1%, 50 μl)): 18.0 ± 8.0 | effect on electrophysiological responses ([5]; DRG and TG neurons): little effect | resting membrane potential (RMP) ([5]; DRG neurons): –45 ± 0.9 mV | resting membrane potential (RMP) ([5]; TG neurons): –47.2 ± 1.9 mV

Reference: publication PMC8112869, “Therapeutic inhibition of keratinocyte TRPV3 sensory channel by local anesthetic dyclonine” (eLife, 2021)
